Values of other authors, collected in PubChem BioAssay AID1259409 (Chemical Carcinogenesis Research Information System (CCRIS), 2018).

Test system: rodent chemically induced tumor inhibition, incidence and multiplicity
Experiment: CCRIS tumor inhibitor studies
Conditions: Promoter: NONE USED

SMILES | tumour outcome (control, treated, inhibition, significance) (Carcinogen: 4-NITROQUINOLINE-1-OXIDE, 56-57-5, Dose [Inhibitor]: 0, 500 PPM IN DIET FOR 10 WK BEGINNING 1 WK PRIOR TO CARCINOGEN DOSE (STUDY DURATION: 32 WK), Route [Inhibitor]: ORAL, Species: RAT, Strain/Sex: F344/MALE, Target Tissue: Type of Lesion: TONGUE: CARCINOMA, Dose [Carcinogen]: 20 PPM IN DRINKING WATER FOR 8 WK) | tumour outcome (control, treated, inhibition, significance) (Carcinogen: 4-NITROQUINOLINE-1-OXIDE, 56-57-5, Dose [Inhibitor]: 0, 500 PPM IN DIET FOR 10 WK BEGINNING 1 WK PRIOR TO CARCINOGEN DOSE (STUDY DURATION: 32 WK), Route [Inhibitor]: ORAL, Species: RAT, Strain/Sex: F344/MALE, Target Tissue: Type of Lesion: TONGUE: PAPILLOMA, Dose [Carcinogen]: 20 PPM IN DRINKING WATER FOR 8 WK) | tumour outcome (control, treated, inhibition, significance) (Carcinogen: 4-NITROQUINOLINE-1-OXIDE, 56-57-5, Dose [Inhibitor]: 0, 500 PPM IN DIET FOR 22 WK BEGINNING 1 WK POST CARCINOGEN TREATMENT (STUDY DURATION: 32 WK), Route [Inhibitor]: ORAL, Species: RAT, Strain/Sex: F344/MALE, Target Tissue: Type of Lesion: TONGUE: CARCINOMA, Dose [Carcinogen]: 20 PPM IN DRINKING WATER FOR 8 WK) | tumour outcome (control, treated, inhibition, significance) (Carcinogen: 4-NITROQUINOLINE-1-OXIDE, 56-57-5, Dose [Inhibitor]: 0, 500 PPM IN DIET FOR 22 WK BEGINNING 1 WK POST CARCINOGEN TREATMENT (STUDY DURATION: 32 WK), Route [Inhibitor]: ORAL, Species: RAT, Strain/Sex: F344/MALE, Target Tissue: Type of Lesion: TONGUE: PAPILLOMA, Dose [Carcinogen]: 20 PPM IN DRINKING WATER FOR 8 WK) | tumour outcome (control, treated, inhibition, significance) (Carcinogen: BENZO[A]PYRENE, 50-32-8, Dose [Inhibitor]: 0, 0.2 MG/G IN DIET FOR 21 WK BEGINNING 1 WK POST LAST CARCINOGEN DOSE (STUDY DURATION: 23 WK), Route [Inhibitor]: ORAL, Species: MOUSE, Strain/Sex: STRAIN-A/FEMALE, Target Tissue: Type of Lesion: FORESTOMACH: TUMOR, Dose [Carcinogen]: 2 MG IN 0.2 ML COTTONSEED OIL ONCE EACH ON DAYS 1, 3 AND 7 OF STUDY) | tumour outcome (control, treated, inhibition, significance) (Carcinogen: BENZO[A]PYRENE, 50-32-8, Dose [Inhibitor]: 0, 1 MG/G IN DIET FOR 21 WK BEGINNING 1 WK POST LAST CARCINOGEN DOSE (STUDY DURATION: 23 WK), Route [Inhibitor]: ORAL, Species: MOUSE, Strain/Sex: STRAIN-A/FEMALE, Target Tissue: Type of Lesion: FORESTOMACH: TUMOR, Dose [Carcinogen]: 2 MG IN 0.2 ML COTTONSEED OIL ONCE EACH ON DAYS 1, 3 AND 7 OF STUDY) | tumour outcome (control, treated, inhibition, significance) (Carcinogen: BENZO[A]PYRENE, 50-32-8, Dose [Inhibitor]: 0, 5 MG/G IN DIET FOR 21 WK BEGINNING 1 WK POST LAST CARCINOGEN DOSE (STUDY DURATION: 23 WK), Route [Inhibitor]: ORAL, Species: MOUSE, Strain/Sex: STRAIN-A/FEMALE, Target Tissue: Type of Lesion: FORESTOMACH: TUMOR, Dose [Carcinogen]: 2 MG IN 0.2 ML COTTONSEED OIL ONCE EACH ON DAYS 1, 3 AND 7 OF STUDY) | tumour outcome (control, treated, inhibition, significance) (Carcinogen: BENZO[A]PYRENE, 50-32-8, Dose [Inhibitor]: 0, 10 MG/G IN DIET FOR 21 WK BEGINNING 1 WK POST LAST CARCINOGEN DOSE (STUDY DURATION: 23 WK), Route [Inhibitor]: ORAL, Species: MOUSE, Strain/Sex: STRAIN-A/FEMALE, Target Tissue: Type of Lesion: FORESTOMACH: TUMOR, Dose [Carcinogen]: 2 MG IN 0.2 ML COTTONSEED OIL ONCE EACH ON DAYS 1, 3 AND 7 OF STUDY) | tumour outcome (control, treated, inhibition, significance) (Carcinogen: N-METHYL-N-NITROSOUREA, 684-93-5, Dose [Inhibitor]: 0, 5 MG/G IN DIET FOR 17 WK BEGINNING 1 WK POST CARCINOGEN DOSE (STUDY DURATION: 18 WK), Route [Inhibitor]: ORAL, Species: RAT, Strain/Sex: SPRAGUE-DAWLEY/FEMALE, Target Tissue: Type of Lesion: MAMMARY GLAND: TUMOR, Dose [Carcinogen]: 50 MG/KG BW ONCE) | tumour outcome (control, treated, inhibition, significance) (Carcinogen: N-METHYL-N-NITROSOUREA, 684-93-5, Dose [Inhibitor]: 0, 5 MG/G IN DIET STARTING 4 WK POST CARCINOGEN DOSE THEN FED FOR 3 WK ALTERNATING WITH 3 WK ON CONTROL DIET FOR DURATIO, Route [Inhibitor]: ORAL, Species: RAT, Strain/Sex: SPRAGUE-DAWLEY/FEMALE, Target Tissue: Type of Lesion: MAMMARY GLAND: TUMOR, Dose [Carcinogen]: 50 MG/KG BW ONCE) | tumour outcome (control, treated, inhibition, significance) (Carcinogen: N-BUTYL-N-(4-HYDROXYBUTYL)NITROSAMINE, 3817-11-6, Dose [Inhibitor]: 12.5 MG/KG IN 4 WK CYCLES OF 1/WK FOR 3 WK AND 1 WK REST STARTING 1 WK AFTER CARCINOGEN ADMINISTRATION THROUGH END OF ST, Route [Inhibitor]: INTRAPERITONEAL, Species: MOUSE, Strain/Sex: BDF1/MALE, Target Tissue: Type of Lesion: URINARY BLADDER: TRANSITIONAL CELL CARCINOMA, Dose [Carcinogen]: 7.5 MG 1/WK FOR 8 WK) | tumour outcome (control, treated, inhibition, significance) (Carcinogen: N-BUTYL-N-(4-HYDROXYBUTYL)NITROSAMINE, 3817-11-6, Dose [Inhibitor]: 12.5 MG/KG IN 4 WK CYCLES OF 3 WK DOSE (1 DOSE/WK) AND 1 WK REST STARTING 1 WK AFTER CARCINOGEN DOSE THROUGH END OF STUD, Route [Inhibitor]: INTRAPERITONEAL, Species: MOUSE, Strain/Sex: DBF1/MALE, Target Tissue: Type of Lesion: URINARY BLADDER: TRANSITIONAL CELL CARCINOMA, Dose [Carcinogen]: 7.5 MG 1/WK FOR 8 WK) | tumour outcome (control, treated, inhibition, significance) (Carcinogen: N-BUTYL-N-(4-HYDROXYBUTYL)NITROSAMINE, 3817-11-6, Dose [Inhibitor]: 25 MG/KG IN 4 WK CYCLES OF 1/WK FOR 3 WK AND 1 WK REST STARTING 1 WK AFTER CARCINOGEN ADMINISTRATION THROUGH END OF STUD, Route [Inhibitor]: INTRAPERITONEAL, Species: MOUSE, Strain/Sex: BDF1/MALE, Target Tissue: Type of Lesion: URINARY BLADDER: TRANSITIONAL CELL CARCINOMA, Dose [Carcinogen]: 7.5 MG 1/WK FOR 8 WK) | tumour outcome (control, treated, inhibition, significance) (Carcinogen: N-BUTYL-N-(4-HYDROXYBUTYL)NITROSAMINE, 3817-11-6, Dose [Inhibitor]: 25 MG/KG IN 4 WK CYCLES OF 3 WK DOSE (1 DOSE/WK) AND 1 WK REST STARTING 1 WK AFTER CARCINOGEN DOSE THROUGH END OF STUDY, Route [Inhibitor]: INTRAPERITONEAL, Species: MOUSE, Strain/Sex: DBF1/MALE, Target Tissue: Type of Lesion: URINARY BLADDER: TRANSITIONAL CELL CARCINOMA, Dose [Carcinogen]: 7.5 MG 1/WK FOR 8 WK) | tumour outcome (control, treated, inhibition, significance) (Carcinogen: N-METHYL-N-NITROSOUREA, 684-93-5, Dose [Inhibitor]: 12.5 MG/KG IN 4 WK CYCLES OF 1/WK FOR 3 WK AND 1 WK REST STARTING 7 D AFTER CARCINOGEN ADMINISTRATION THROUGH END OF STU, Route [Inhibitor]: INTRAPERITONEAL, Species: RAT, Strain/Sex: SPRAGUE-DAWLEY/FEMALE, Target Tissue: Type of Lesion: MAMMARY GLAND: ADENOCARCINOMA, Dose [Carcinogen]: 20 MG/KG BW ONCE) | tumour outcome (control, treated, inhibition, significance) (Carcinogen: N-METHYL-N-NITROSOUREA, 684-93-5, Dose [Inhibitor]: 12.5 MG/KG IN 4 WK CYCLES OF 3 WK DOSE (1 DOSE/WK) AND 1 WK REST STARTING 7 D AFTER CARCINOGEN DOSE THROUGH THE END OF S, Route [Inhibitor]: INTRAPERITONEAL, Species: RAT, Strain/Sex: SPRAGUE-DAWLEY/FEMALE, Target Tissue: Type of Lesion: MAMMARY GLAND: ADENOCARCINOMA, Dose [Carcinogen]: 20 MG/KG BW ONCE) | tumour outcome (control, treated, inhibition, significance) (Carcinogen: N-METHYL-N-NITROSOUREA, 684-93-5, Dose [Inhibitor]: 25 MG/KG IN 4 WK CYCLES OF 1/WK FOR 3 WK AND 1 WK REST STARTING 7 D AFTER CARCINOGEN ADMINISTRATION THROUGH END OF STUDY, Route [Inhibitor]: INTRAPERITONEAL, Species: RAT, Strain/Sex: SPRAGUE-DAWLEY/FEMALE, Target Tissue: Type of Lesion: MAMMARY GLAND: ADENOCARCINOMA, Dose [Carcinogen]: 20 MG/KG BW ONCE) | tumour outcome (control, treated, inhibition, significance) (Carcinogen: N-METHYL-N-NITROSOUREA, 684-93-5, Dose [Inhibitor]: 25 MG/KG IN 4 WK CYCLES OF 3 WK DOSE (1 DOSE/WK) AND 1 WK REST STARTING 7 D AFTER CARCINOGEN DOSE THROUGH END OF STUDY (, Route [Inhibitor]: INTRAPERITONEAL, Species: RAT, Strain/Sex: SPRAGUE-DAWLEY/FEMALE, Target Tissue: Type of Lesion: MAMMARY GLAND: ADENOCARCINOMA, Dose [Carcinogen]: 20 MG/KG BW ONCE)
O=C(/C=C/c1ccccc1)c1ccccc1 | 9/15 (60%), 3/16 (19%), 68%, p<0.05 | 4/15 (27%), 1/16 (6%), 78%, not significant | 9/15 (60%), 3/16 (19%), 68%, p<0.05 | 4/15 (27%), 0/16 (0%), 100%, p<0.05 | 93%, 100%, -8%, not significant | 93%, 100%, -8%, not significant | 93%, 100%, -8%, not significant | 93%, 100%, -8%, not significant | 71%, 36%, 49%, p=0.058 | 75%, 38%, 49%, p=0.033 | – | – | – | – | – | – | – | –
O=C1C=CC(=O)O1 (tested in a mixture with another compound) | – | – | – | – | – | – | – | – | – | – | 19/50 (38%), 14/50 (28%), 26%, not significant | 19/50 (38%), 14/50 (28%), 26%, not significant | 19/50 (38%), 7/46 (15%), 61%, p<0.05 | 19/50 (38%), 7/46 (15%), 61%, p<0.05 | 64%, 52%, 19%, not significant | 64%, 52%, 19%, not significant | 64%, 50%, 22%, not significant | 64%, 50%, 22%, not significant
